The results in this text go back to patent US11331369B2, “Endoparasitic depsipeptides” (Zoetis Services LLC, priority 2017, dated 2022).

The subject of the assay is third stage larvae of Haemonchus contortus. The assay is described as follows: Haemonchus contortus L3 (HcL3) Assay. To be noted: 96 h, read-out: HcL3 Minimum Effective Dose (MED). Format: cell-based.

Where a name gives a salt, the structure may show the parent alone.

Take `CC(C)C[C@H]1C(=O)O[C@H](Cc2cccc(Cn3cc(Br)cn3)c2)C(=O)N(C)[C@@H](CC(C)C)C(=O)O[C@H](C)C(=O)N(C)[C@@H](CC(C)C)C(=O)O[C@H](Cc2ccc(Cn3cc(Br)cn3)cc2)C(=O)N(C)[C@@H](CC(C)C)C(=O)O[C@H](C)C(=O)N1C` [Example 3-3, (3S,6R,9S,12R,15S,18R,21S,24R)-6-[[3-[(4-bromopyrazol-1-yl)methyl]phenyl]methyl]-18-[[4-[(4-bromopyrazol-1-yl)methyl]phenyl]methyl]-3,9,15,21-tetraisobutyl-4,10,12,16,22,24-hexamethyl-1,7,13,19-tetraoxa-4,10,16,22-tetrazacyclotetracosane-2,5,8,11,14,17,20,23-octaone]: the minimal effective concentration lay in the range of 1 to 10 µM.

As to `CC(C)C[C@H]1C(=O)O[C@H](Cc2ccc(Cn3cc(O)cn3)cc2)C(=O)N(C)[C@@H](CC(C)C)C(=O)O[C@H](C)C(=O)N(C)[C@@H](CC(C)C)C(=O)O[C@H](Cc2ccc(Cn3cc(O)cn3)cc2)C(=O)N(C)[C@@H](CC(C)C)C(=O)O[C@H](C)C(=O)N1C` [Example 1b-18, (3S,6R,9S,12R,15S,18R,21S,24R)-6,18-bis(4-((4-hydroxy-1H-pyrazol-1-yl)methyl)benzyl)-3,9,15,21-tetraisobutyl-4,10,12,16,22,24-hexamethyl-1,7,13,19-tetraoxa-4,10,16,22-tetraazacyclotetracosan-2,5,8,11,14,17,20,23-octaone], the minimal effective concentration was no more than 1 µM.

Consider `CC(C)C[C@H]1C(=O)O[C@H](Cc2ccc(Cn3nccc3C(F)F)cc2)C(=O)N(C)[C@@H](CC(C)C)C(=O)O[C@H](C)C(=O)N(C)[C@@H](CC(C)C)C(=O)O[C@H](Cc2ccc(Cn3nccc3C(F)F)cc2)C(=O)N(C)[C@@H](CC(C)C)C(=O)O[C@H](C)C(=O)N1C` [Example 1b-211, (3S,6R,9S,12R,15S,18R,21S,24R)-6,18-bis(4-((5-(difluoromethyl)-1H-pyrazol-1-yl)methyl)benzyl)-3,9,15,21-tetraisobutyl-4,10,12,16,22,24-hexamethyl-1,7,13,19-tetraoxa-4,10,16,22-tetraazacyclotetracosan-2,5,8,11,14,17,20,23-octaone], for which the minimal effective concentration is no more than 1 µM.

Take `CC(C)C[C@H]1C(=O)O[C@H](Cc2ccc(Cn3cc(C(N)=O)cn3)cc2)C(=O)N(C)[C@@H](CC(C)C)C(=O)O[C@H](C)C(=O)N(C)[C@@H](CC(C)C)C(=O)O[C@H](Cc2ccccc2)C(=O)N(C)[C@@H](CC(C)C)C(=O)O[C@H](C)C(=O)N1C` [Example 2-53, 1-(4-(((2R,5S,8R,11S,14R,17S,20R,23S)-14-benzyl-5,11,17,23-tetraisobutyl-4,8,10,16,20,22-hexamethyl-3,6,9,12,15,18,21,24-octaoxo-1,7,13,19-tetraoxa-4,10,16,22-tetraazacyclotetracosan-2-yl)methyl)benzyl)-1H-pyrazole-4-carboxamide]: the minimal effective concentration lay in the range of 1 to 10 µM.

For `COc1cnn(Cc2ccc(C[C@H]3OC(=O)[C@H](CC(C)C)N(C)C(=O)[C@@H](C)OC(=O)[C@H](CC(C)C)N(C)C(=O)[C@@H](Cc4cccc(Cn5cc(OC)cn5)c4)OC(=O)[C@H](CC(C)C)N(C)C(=O)[C@@H](C)OC(=O)[C@H](CC(C)C)N(C)C3=O)cc2)c1` [Example 3-27, (3S,6R,9S,12R,15S,18R,21S,24R)-3,9,15,21-tetraisobutyl-6-(3-((4-methoxy-1H-pyrazol-1-yl)methyl)benzyl)-18-(4-((4-methoxy-1H-pyrazol-1-yl)methyl)benzyl)-4,10,12,16,22,24-hexamethyl-1,7,13,19-tetraoxa-4,10,16,22-tetraazacyclotetracosan-2,5,8,11,14,17,20,23-octaone], the minimal effective concentration lay in the range of 1 to 10 µM.

For the molecule `CC(C)C[C@H]1C(=O)O[C@H](Cc2ccc(Cn3cc(O)cn3)cc2)C(=O)N(C)[C@@H](CC(C)C)C(=O)O[C@H](C)C(=O)N(C)[C@@H](CC(C)C)C(=O)O[C@H](Cc2ccccc2)C(=O)N(C)[C@@H](CC(C)C)C(=O)O[C@H](C)C(=O)N1C` [Example 2-30, (3S,6R,9S,12R,15S,18R,21S,24R)-6-benzyl-18-(4-((4-hydroxy-1H-pyrazol-1-yl)methyl)benzyl)-3,9,15,21-tetraisobutyl-4,10,12,16,22,24-hexamethyl-1,7,13,19-tetraoxa-4,10,16,22-tetraazacyclotetracosan-2,5,8,11,14,17,20,23-octaone], the minimal effective concentration was in the range of 1 to 10 µM.

For `CC(C)C[C@H]1C(=O)O[C@H](Cc2ccc(CN3CCOCC3)cc2)C(=O)N(C)[C@@H](CC(C)C)C(=O)O[C@H](C)C(=O)N(C)[C@@H](CC(C)C)C(=O)O[C@H](Cc2ccccc2)C(=O)N(C)[C@@H](CC(C)C)C(=O)O[C@H](C)C(=O)N1C` [Example 10-6, (3S,6R,9S,12R,15S,18R,21S,24R)-6-benzyl-3,9,15,21-tetraisobutyl-4,10,12,16,22,24-hexamethyl-18-(4-(morpholinomethyl)benzyl)-1,7,13,19-tetraoxa-4,10,16,22-tetraazacyclotetracosan-2,5,8,11,14,17,20,23-octaone], the minimal effective concentration lay in the range of 1 to 10 µM.

Consider `CC(C)C[C@H]1C(=O)O[C@H](Cc2ccc(C(C)(C)n3cc(Br)cn3)cc2)C(=O)N(C)[C@@H](CC(C)C)C(=O)O[C@H](C)C(=O)N(C)[C@@H](CC(C)C)C(=O)O[C@H](Cc2ccc(C(C)(C)n3cc(Br)cn3)cc2)C(=O)N(C)[C@@H](CC(C)C)C(=O)O[C@H](C)C(=O)N1C` [Example 1c-11, (3S,6R,9S,12R,15S,18R,21S,24R)-6,18-bis(4-(2-(4-bromo-1H-pyrazol-1-yl)propan-2-yl)benzyl)-3,9,15,21-tetraisobutyl-4,10,12,16,22,24-hexamethyl-1,7,13,19-tetraoxa-4,10,16,22-tetraazacyclotetracosan-2,5,8,11,14,17,20,23-octaone], for which the minimal effective concentration was no more than 1 µM.

`CC(C)C[C@H]1C(=O)O[C@H](Cc2ccc(CN3CCOCC3)cc2)C(=O)N(C)[C@@H](CC(C)C)C(=O)O[C@H](C)C(=O)N(C)[C@@H](CC(C)C)C(=O)O[C@H](Cc2ccc(CN3CCOCC3)cc2)C(=O)N(C)[C@@H](CC(C)C)C(=O)O[C@H](C)C(=O)N1C` [Example 9-1, (3S,6R,9S,12R,15S,18R,21S,24R)-3,9,15,21-tetraisobutyl-4,6,10,16,18,22-hexamethyl-12,24-bis(4-(morpholinomethyl)benzyl)-1,7,13,19-tetraoxa-4,10,16,22-tetraazacyclotetracosan-2,5,8,11,14,17,20,23-octaone]: the minimal effective concentration is 1 to 10 µM.

As to `CC(C)C[C@H]1C(=O)O[C@H](Cc2cccc(Cn3cccn3)c2)C(=O)N(C)[C@@H](CC(C)C)C(=O)O[C@H](C)C(=O)N(C)[C@@H](CC(C)C)C(=O)O[C@H](Cc2ccc(Cn3cccn3)cc2)C(=O)N(C)[C@@H](CC(C)C)C(=O)O[C@H](C)C(=O)N1C` [Example 3-1, (3S,6R,9S,12R,15S,18R,21S,24R)-3,9,15,21-tetraisobutyl-4,6,10,16,18,22-hexamethyl-12-[[3-(pyrazol-1-ylmethyl)phenyl]methyl]-24-[[4-(pyrazol-1-ylmethyl)phenyl]methyl]-1,7,13,19-tetraoxa-4,10,16, 22-tetrazacyclotetracosane-2,5,8,11,14,17,20,23-octaone], the minimal effective concentration is 1 to 10 µM.

Turning to `CC(C)C[C@H]1C(=O)O[C@H](Cc2ccc(CN3CCNc4ccccc43)cc2)C(=O)N(C)[C@@H](CC(C)C)C(=O)O[C@H](C)C(=O)N(C)[C@@H](CC(C)C)C(=O)O[C@H](Cc2ccc(CN3CCNc4ccccc43)cc2)C(=O)N(C)[C@@H](CC(C)C)C(=O)O[C@H](C)C(=O)N1C` [Example 9-69, (3S,6R,9S,12R,15S,18R,21S,24R)-6,18-bis[[4-(3,4-dihydro-2H-quinoxalin-1-ylmethyl)phenyl]methyl]-3,9,15,21-tetraisobutyl-4,10,12,16,22,24-hexamethyl-1,7,13,19-tetraoxa-4,10,16,22-tetrazacyclotetracosane-2,5,8,11,14,17,20,23-octaone dihydrochloride], the minimal effective concentration is 10 to 100 µM.

For the molecule `Cc1cnn(C(C)(C)c2ccc(C[C@H]3OC(=O)[C@H](CC(C)C)N(C)C(=O)[C@@H](C)OC(=O)[C@H](CC(C)C)N(C)C(=O)[C@@H](Cc4ccc(C(C)(C)n5cc(C)cn5)cc4)OC(=O)[C@H](CC(C)C)N(C)C(=O)[C@@H](C)OC(=O)[C@H](CC(C)C)N(C)C3=O)cc2)c1` [Example 1c-9, (3S,6R,9S,12R,15S,18R,21S,24R)-3,9,15,21-tetraisobutyl-4,6,10,16,18,22-hexamethyl-12,24-bis(4-(2-(4-methyl-1H-pyrazol-1-yl)propan-2-yl)benzyl)-1,7,13,19-tetraoxa-4,10,16,22-tetraazacyclotetracosan-2,5,8,11,14,17,20,23-octaone], the minimal effective concentration is no more than 1 µM.

In the case of `CC(C)C[C@H]1C(=O)O[C@H](Cc2ccc(Cn3cc(N4CCOCC4)cn3)cc2)C(=O)N(C)[C@@H](CC(C)C)C(=O)O[C@H](C)C(=O)N(C)[C@@H](CC(C)C)C(=O)O[C@H](Cc2ccc(Cn3cc(N4CCOCC4)cn3)cc2)C(=O)N(C)[C@@H](CC(C)C)C(=O)O[C@H](C)C(=O)N1C` [Example 1b-179, (3S,6R,9S,12R,15S,18R,21S,24R)-3,9,15,21-tetraisobutyl-4,6,10,16,18,22-hexamethyl-12,24-bis(4-((4-morpholino-1H-pyrazol-1-yl)methyl)benzyl)-1,7,13,19-tetraoxa-4,10,16,22-tetraazacyclotetracosan-2,5,8,11,14,17,20,23-octaone], the minimal effective concentration is 1 to 10 µM.

Consider `CC(C)C[C@H]1C(=O)O[C@H](Cc2ccc(C(C)(C)n3cc([N+](=O)[O-])cn3)cc2)C(=O)N(C)[C@@H](CC(C)C)C(=O)O[C@H](C)C(=O)N(C)[C@@H](CC(C)C)C(=O)O[C@H](Cc2ccc(C(C)(C)n3cc([N+](=O)[O-])cn3)cc2)C(=O)N(C)[C@@H](CC(C)C)C(=O)O[C@H](C)C(=O)N1C` [Example 1c-7, (3S,6R,9S,12R,15S,18R,21S,24R)-3,9,15,21-tetraisobutyl-4,6,10,16,18,22-hexamethyl-12,24-bis(4-(2-(4-nitro-1H-pyrazol-1-yl)propan-2-yl)benzyl)-1,7,13,19-tetraoxa-4,10,16,22-tetraazacyclotetracosan-2,5,8,11,14,17,20,23-octaone], for which the minimal effective concentration is no more than 1 µM.
